Reference: patent publication US20220395477A1, “COMPOSITIONS AND METHODS FOR PREVENTING AND TREATING RESPIRATORY SYNCYTIAL VIRUS INFECTION” (priority 2019, published 2022)

Tested on: RSV Line 19 (rA2-KL19F)
Test: RFP (mKate2)-expressing RSV infection of A549 cells pretreated with SCFAs 24 hours before infection (RFP/DAPI)
Assay type: cell-based, Human Respiratory Syncytial Virus
Conditions: single SCFA 100 to 300 μM, 3 MOI, imaged after 48 hours
Procedure: Images taken after 48 Hrs.
Cells were infected at 3 MOI of RSV Line 19 (rA2-KL19F) expressing a red fluorescent marker, mKate2, as well as the F protein from the mucogenic clinical strain, and media was replaced with the appropriate SCFAs that was previously used in cultured. After 48 hours, the cells were stained with NucBlue (life technologies) and imaged using a Keyence fluorescence microscope (FIGS. 4A-4B).

SMILES	expression of RFP-MKate (RFP/DAPI)
CCC(=O)O [propionate]	reduces the expression of RFP-MKate
CC(=O)O [acetate]	reduces the expression of RFP-MKate
